{
  "source": "paper PMC8558867",
  "about": "“Development of BromoTag: A “Bump-and-Hole”–PROTAC System to Induce Potent, Rapid, and Selective Degradation of Tagged Target Proteins” (Journal of Medicinal Chemistry, 2021)",
  "assay": "In vivo PK profiling",
  "details": "male, C57BL/6, mouse, plasma, mice",
  "experimental": "PK profiling was outsourced and undertaken by Shanghai ChemPartner Co., Ltd. All animal experiments performed were conducted in compliance with the Institutional Animal Care and Use Committee (IACUC) and the Office of Laboratory Animal Welfare (OLAW) guidelines. Six- to eight-week-old C57BL/6 male mice purchased from Jihui Laboratory Animal Co. LTD were used in the study. […] The animals were restrained manually at the designated time points (0.083, 0.25, 0.5, 1, 2, 4, and 8 h); approximately, 110 μL of blood sample was collected via facial vein into K2EDTA tubes. Three mice per time point were used, resulting in a […]. The blood sample was put on ice and centrifuged at 2000g for 5 min to obtain the plasma sample within 15 min. The plasma samples were stored at approximately −70 °C until analysis. A 30 μL aliquot of plasma was added with 200 μL of internal standard (diclofenac, 40 ng/mL) in 1% formic acid in MeCN. The mixture was then vortexed for 1 min and then centrifuged for 10 min at 5800 rpm. The supernatant (100 μL) was transferred to a new plate. The solvent (0.5 μL) was injected to LC–MS/MS. LC–MS/MS instrument used: SCIEX LC–MS/MS-45 (Triple Quad 6500+). Data was analyzed by WinNonLin and Microsoft Excel.",
  "note": "Where two headings read alike, the source gives them in different places.",
  "data": [
    {"molecule": "CC[C@@H](C(=O)OCCOCCOCCOCC(=O)N[C@H](C(=O)N1C[C@H](O)C[C@H]1C(=O)NCc1ccc(-c2scnc2C)cc1)C(C)(C)C)[C@@H]1N=C(c2ccc(Cl)cc2)c2c(sc(C)c2C)-n2c(C)nnc21", "note": "[AGB1 (46), (S)-13-((2S,4R)-4-Hydroxy-2-((4-(4-methylthiazol-5-yl)benzyl)carbamoyl)pyrrolidine-1-carbonyl)-14,14-dimethyl-11-oxo-3,6,9-trioxa-12-azapentadecyl (R)-2-((S)-4-(4-chlorophenyl)-2,3,9-trimethyl-6H-thieno[3,2-f][1,2,4]triazolo[4,3-a][1,4]diazepin-6-yl)butanoate]", "values": [
      {"measurement": "AUC(0-t) at 8 h", "setting": "IV (5 mg/kg)", "result": 1.71, "unit": "µM·h"},
      {"measurement": "MRT inf", "setting": "IV (5 mg/kg)", "result": 23.4, "unit": "min"},
      {"measurement": "clearance at 8 h", "setting": "IV (5 mg/kg)", "result": 47.2, "unit": "mL/min/kg"},
      {"measurement": "half-life at 8 h", "setting": "IV (5 mg/kg)", "result": 89.4, "unit": "min"},
      {"measurement": "AUC(0-inf) at 8 h", "setting": "IV (5 mg/kg), read-out: AUCinf", "result": 1.72, "unit": "µM·h"},
      {"measurement": "Vd at 8 h", "setting": "IV (5 mg/kg), read-out: Vss", "result": 1.1, "unit": "L/kg"},
      {"measurement": "AUC(0-t) at 8 h", "setting": "SC (5 mg/kg)", "result": 2.33, "unit": "µM·h"},
      {"measurement": "Cmax at 8 h", "setting": "SC (5 mg/kg)", "result": 700, "unit": "nM"},
      {"measurement": "Tmax at 8 h", "setting": "SC (5 mg/kg)", "result": 30, "unit": "min"},
      {"measurement": "half-life at 8 h", "setting": "SC (5 mg/kg)", "result": 99, "unit": "min"},
      {"measurement": "AUC(0-inf) at 8 h", "setting": "SC (5 mg/kg), read-out: AUCinf (μ; M·h)", "result": 2.4, "unit": "µM·h"}
    ]}
  ]
}
